Data published in patent US20010054579A1, “METHOD OF SEPARATING DIFFERENT CHEMICALS IN A SAMPLE” (priority 1997, published 2001).

Assays:
Format in all cases: physicochemical
[1] = Reversed-phase liquid chromatography retention factor (log k) on hexyl-phenyl bonded phase; settings: C6Ph column; for log k in 80% CH3CN, C6Ph: aqueous 80% acetonitrile at 40° C.
Text: (§1) The inertness and the chemical stability of the synthesized hexyl-phenyl bonded silica gel were studied by looking at the retention factors and peak shapes of pyridine, benzoic acid, 8-hydroxyquinoline, and naphthalene disclosed in T. Hanai, Encyclopedia of Analytical Science (1995), Academic Press, London, p. […] which is hereby incorporated herein by reference. The retention factor, in terms of measured parameters, is “k=(tR−tO)/tO”: where tR is retention time of the measured peak; and to is retention time of non-retained component.
(§2) The retention capacities of alkyl-phenyl bonded silica gels were compared from the retention factors for alkylbenzenes and polycyclic aromatic hydrocarbons (PAH).
(§3) […] The log k values were used for the analysis of hydrophobicity of bonded phases using van der Waals volumes of analytes as the standard.
(§4) The liquid chromatograph was a model HP1090 from Hewlett-Packard (Palo Alto, Calif. USA), and the chemically-bonded silica gel columns, —C18, —C8 and —C5, —C6Ph, —C3Ph, 15 cm×4.6 mm I.D., were from Phenomenex Inc. (Torrance, Calif. USA). Chemicals used were from Aldrich and ChemService. HPLC grade acetonitrile and water were from Fisher Scientific (Tustin, Calif. USA).

[2] = Reversed-phase liquid chromatography retention factor (log k) on octyl bonded phase; settings: C8 column; for log k in 80% CH3CN, C8: aqueous 80% acetonitrile at 40° C.
Text: as §1, §2, §3, §4

[3] = Reversed-phase liquid chromatography retention factor (log k) on octadecyl bonded phase; settings: C18 column; for log k in 80% CH3CN, C18: aqueous 80% acetonitrile at 40° C.
Text: as §1, §2, §3, §4

[4] = Reversed-phase liquid chromatography retention factor (log k) on propyl-phenyl bonded phase; settings: C3Ph column; for log k in 80% CH3CN, C3Ph: aqueous 80% acetonitrile at 40° C.
Text: as §1, §2, §3, §4

[5] = Reversed-phase liquid chromatography retention factor (log k) on pentyl bonded phase; settings: C5 column; for log k in 80% CH3CN, C5: aqueous 80% acetonitrile at 40° C.
Text: as §1, §2, §3, §4

SMILES | log k in 70% CH3CN, C6Ph [1] | log k in 70% CH3CN, C8 [2] | log k in 70% CH3CN, C18 [3] | log k in 70% CH3CN, C3Ph [4] | log k in 70% CH3CN, C5 [5] | log k in 80% CH3CN, C6Ph [1] | log k in 80% CH3CN, C8 [2] | log k in 80% CH3CN, C5 [5] | log k in 80% CH3CN, C18 [3] | log k in 80% CH3CN, C3Ph [4]
c1cc2c3c(cccc3c1)CC2 [Acenaphthene] | 0.616 | 0.629 | 0.814 | 0.447 | – | – | – | – | – | –
C1=Cc2cccc3cccc1c23 [Acenaphthylene] | 0.521 | 0.540 | 0.663 | 0.364 | 0.450 | – | – | – | – | –
c1ccc2cc3ccccc3cc2c1 [Anthracene] | 0.679 | 0.688 | 0.894 | 0.490 | 0.562 | – | – | – | – | –
c1ccccc1 [Benzene] | 0.230 | 0.281 | 0.340 | 0.167 | 0.209 | – | – | – | – | –
c1ccc2cc3c(ccc4ccccc43)cc2c1 [Benzo(a)anthracene] | 0.878 | 0.860 | 1.177 | 0.647 | 0.692 | – | – | – | – | –
c1ccc2c(c1)cc1ccc3cccc4ccc2c1c34 [Benzo(a)pyrene] | 1.009 | 0.071 | 1.375 | 0.733 | 0.755 | – | – | – | – | –
c1ccc2c(c1)-c1cccc3c1c-2cc1ccccc13 [Benzo(b)fluoranthene] | 0.970 | 0.943 | 1.325 | 0.714 | 0.741 | – | – | – | – | –
c1cc2ccc3ccc4ccc5cccc6c(c1)c2c3c4c56 [Benzo(g,h,i)perylene] | 1.118 | 1.067 | – | 0.799 | 0.822 | – | – | – | – | –
c1ccc2cc3c(cc2c1)-c1cccc2cccc-3c12 [Benzo(k)fluoranthene] | 0.982 | 0.959 | 1.347 | 0.726 | 0.741 | – | – | – | – | –
CCCCc1ccccc1 [Butylbenzene] | 0.648 | 0.776 | 0.963 | 0.548 | 0.653 | 0.391 | 0.561 | 0.462 | 0.702 | 0.274
c1ccc2c(c1)ccc1c3ccccc3ccc21 [Chrysene] | 0.869 | 0.842 | 1.160 | 0.635 | 0.673 | – | – | – | – | –
CCCCCCCCCCc1ccccc1 [Decylbenzene] | 1.313 | – | – | 1.146 | 1.400 | 0.941 | 1.324 | 1.139 | 1.697 | 0.748
c1ccc2c(c1)ccc1cc3c(ccc4ccccc43)cc12 [Dibenzo(a,h)anthracene] | 1.071 | 1.032 | 1.479 | 0.806 | 0.803 | – | – | – | – | –
CCc1ccccc1 [Ethylbenzene] | 0.428 | 0.513 | 0.628 | 0.348 | 0.417 | 0.215 | 0.324 | 0.258 | 0.394 | 0.121
c1ccc2c(c1)-c1cccc3cccc-2c13 [Fluoranthene] | 0.746 | 0.747 | 0.989 | 0.535 | 0.599 | – | – | – | – | –
c1ccc2c(c1)Cc1ccccc1-2 [Fluorene] | 0.602 | 0.629 | 0.794 | 0.436 | 0.527 | – | – | – | – | –
CCCCCCCc1ccccc1 [Heptylbenzene] | 0.985 | 1.181 | 1.491 | 0.851 | 1.019 | 0.667 | 0.937 | 0.794 | 1.188 | 0.512
CCCCCCc1ccccc1 [Hexylbenzene] | 0.871 | 1.043 | 1.310 | 0.747 | 0.894 | 0.572 | 0.806 | 0.679 | 1.021 | 0.430
c1ccc2c(c1)-c1ccc3ccc4cccc5cc-2c1c3c45 [Indeno(1,2,3 cd)pyrene] | 1.102 | 1.067 | – | 0.803 | 0.822 | – | – | – | – | –
c1ccc2ccccc2c1 [Naphthalene] | 0.470 | 0.486 | 0.582 | 0.305 | 0.410 | – | – | – | – | –
CCCCCCCCCc1ccccc1 [Nonylbenzene] | 1.204 | 1.457 | – | 1.046 | 1.271 | 0.849 | 1.193 | 1.022 | 1.528 | 0.668
CCCCCCCCc1ccccc1 [Octylbenzene] | 1.095 | 1.318 | 1.673 | 0.947 | 1.144 | 0.757 | 1.063 | 0.906 | 1.356 | 0.589
CCCCCc1ccccc1 [Pentylbenzene] | 0.758 | 0.908 | 1.134 | 0.646 | 0.772 | 0.480 | 0.680 | 0.567 | 0.858 | 0.350
c1ccc2c(c1)ccc1ccccc12 [Phenanthrene] | 0.655 | 0.660 | 0.854 | 0.468 | 0.538 | – | – | – | – | –
CCCc1ccccc1 [Propylbenzene] | 0.538 | 0.644 | 0.800 | 0.449 | 0.537 | 0.303 | 0.442 | 0.362 | 0.548 | 0.196
c1cc2ccc3cccc4ccc(c1)c2c34 [Pyrene] | 0.778 | 0.777 | 1.038 | 0.553 | 0.614 | – | – | – | – | –
